Like-named read-outs stand apart in the source and are kept apart here.
Assays:
HCV replicon = HCV replicon FRET assay; format: cell-based; conditions: Hepatitis C virus
How it was run: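 HCV replicon cells, with or without Renilla luciferase reporter, incubated with titrated compounds at 37 °C; Alamar blue read for cytotoxicity. NS3 protease activity read from lysates with 20 μM EDANS/DABCYL FRET peptide (340/490 nm, kinetic), or by Dual-Glo luciferase. Background from highest protease-inhibitor wells; EC50 = 50% signal reduction.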

HCV NS5B = target: T1, HCV NS5B (Hepatitis C virus genotype 1b, UniProt Q9WMX2); test: HCV NS5B RdRp enzyme assay (preincubation protocol); format: biochemical
T1 construct: The protein was expressed with an 18 amino acid C-terminal truncation to enhance the solubility; made in house; host or cells: E. coli BL21 (DE3), pET21a
T1 sequence (Q9WMX2 2420-2992): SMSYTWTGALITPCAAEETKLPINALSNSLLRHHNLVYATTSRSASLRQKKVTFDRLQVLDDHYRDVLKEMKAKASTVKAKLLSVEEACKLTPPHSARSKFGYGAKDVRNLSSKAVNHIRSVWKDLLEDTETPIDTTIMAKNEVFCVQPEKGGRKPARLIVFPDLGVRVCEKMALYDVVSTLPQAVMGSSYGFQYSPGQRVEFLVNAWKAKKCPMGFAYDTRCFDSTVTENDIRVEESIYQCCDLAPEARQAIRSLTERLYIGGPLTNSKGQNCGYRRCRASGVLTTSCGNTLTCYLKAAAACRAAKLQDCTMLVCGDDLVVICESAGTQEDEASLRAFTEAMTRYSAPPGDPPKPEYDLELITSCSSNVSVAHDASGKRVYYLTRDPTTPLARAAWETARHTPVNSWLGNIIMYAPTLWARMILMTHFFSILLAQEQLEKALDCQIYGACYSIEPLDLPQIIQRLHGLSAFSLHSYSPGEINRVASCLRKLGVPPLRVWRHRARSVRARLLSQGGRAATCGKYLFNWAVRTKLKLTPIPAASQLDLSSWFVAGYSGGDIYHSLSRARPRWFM
How it was run: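 C-terminally truncated (Δ18) genotype 1b NS5B from E. coli, 14 nM, added to compound, then polyA template (0.2 nM), 3H-UTP (0.29 μM) and oligo-dT12 primer precaptured on streptavidin SPA beads. 4 h at 30 °C, pH 7.5, 2% DMSO; SPA readout; IC50 from seven concentrations by logistic fit.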

[1] = Table 1, FRET assay, read-out: EC50*
[2] = Table 1b, FRET assay, read-out: EC50*
[3] = Table 1a, FRET assay, read-out: EC50*

| Compound | EC50 (HCV replicon; [1]) | IC50 (HCV NS5B; Table 1, read-out: IC50*) | EC50 (HCV replicon; [2]) | IC50 (HCV NS5B; Table 1b, read-out: IC50*) | other results |
| --- | --- | --- | --- | --- | --- |
| C[C@@H]1CN(C(=O)NC2Cc3ccccc3-c3c(C4CCCCC4)c4ccc(C(=O)NS(=O)(=O)N(C)C)cc4n3C2)C[C@H](C)O1 (stereo partly shown) | 70 to 1000 nM | 10 to 1000 nM | – | – | – |
| COc1ccc2c(c1)CC(C(=O)N1CCN(C(=O)C3(O)CC3)CC1)Cn1c-2c(C2CCCCC2)c2ccc(C(=O)NS(=O)(=O)N(C)C)cc21 (stereo not shown) | – | – | 30 to 1000 nM | 20 to 1000 nM | – |
| COc1ccc2c(c1)CC(NC(=O)N(C)CC1CCCCO1)Cn1c-2c(C2CCCCC2)c2ccc(C(=O)NS(=O)(=O)N(C)C)cc21 (stereo not shown) | – | – | 30 to 1000 nM | 20 to 1000 nM | – |
| CN(C)S(=O)(=O)NC(=O)c1ccc2c(C3CCCCC3)c3n(c2c1)CC(C(=O)N1CCC(F)CC1)=Cc1ccccc1-3 [drawing 196] | 70 to 1000 nM | 10 to 1000 nM | – | – | – |
| COc1ccc2c(c1)C=C(C(=O)N1CCN(c3cnccn3)CC1)Cn1c-2c(C2CCCCC2)c2ccc(C(=O)NS(=O)(=O)N(C)C)cc21 | – | – | 30 to 1000 nM | 20 to 1000 nM | – |
| CN(C)S(=O)(=O)NC(=O)c1ccc2c(C3CCCCC3)c3n(c2c1)CC(C(=O)N1CCN2C(=O)c4ccccc4C2C1)=Cc1ccccc1-3 (stereo not shown) | 70 to 1000 nM | 10 to 1000 nM | – | – | – |
| CN(C)S(=O)(=O)NC(=O)c1ccc2c(C3CCCCC3)c3n(c2c1)CC(C(=O)N1CCN(CC(=O)N2CCOCC2)CC1)=Cc1ccccc1-3 | 70 to 1000 nM | 10 to 1000 nM | – | – | – |
| COc1ccc2c(c1)CC(NC(=O)N1CCS(=O)(=O)CC1)Cn1c-2c(C2CCCCC2)c2ccc(C(=O)NS(=O)(=O)N(C)C)cc21 (stereo not shown) | – | – | – | – | EC50 (HCV replicon; [3]): 30 to 1000 nM; IC50 (HCV NS5B; Table 1a, read-out: IC50*): 10 to 1000 nM |
| COC[C@H]1CN(C(=O)C2=Cc3cc(OC)ccc3-c3c(C4CCCCC4)c4ccc(C(=O)NS(=O)(=O)N(C)C)cc4n3C2)CCO1 | – | – | 30 to 1000 nM | 20 to 1000 nM | – |
| COc1ccc2c(c1)C=C(C(=O)N1C[C@@H](C)N(CC3CC3)[C@@H](C)C1)Cn1c-2c(C2CCCCC2)c2ccc(C(=O)NS(=O)(=O)N(C)C)cc21 | – | – | 30 to 1000 nM | 20 to 1000 nM | – |
| CN(C)S(=O)(=O)NC(=O)c1ccc2c(C3CCCCC3)c3n(c2c1)CC(C(=O)N1CCN(S(C)(=O)=O)CC1)=Cc1ccccc1-3 | 70 to 1000 nM | 10 to 1000 nM | – | – | – |
| O=C(Nc1nccs1)C1=Cc2ccccc2-c2c(C3CCCCC3)c3ccc(C(=O)O)cc3n2C1 | 1000 to 10000 nM | 10 to 1000 nM | – | – | – |
| COc1ccc2c(c1)C=C(C(=O)N1C[C@@H](C)O[C@@H](C)C1)Cn1c-2c(C2CCCCC2)c2ccc(C(=O)NS(=O)(=O)N3CCCC3)cc21 | – | – | 30 to 1000 nM | 20 to 1000 nM | – |
| COc1ccc2c(c1)C=C(C(=O)NCc1nccs1)Cn1c-2c(C2CCCCC2)c2ccc(C(=O)NS(=O)(=O)N(C)C)cc21 | – | – | – | – | EC50 (HCV replicon; [3]): 30 to 1000 nM; IC50 (HCV NS5B; Table 1a, read-out: IC50*): 10 to 1000 nM |
| CN(C)S(=O)(=O)NC(=O)c1ccc2c(C3CCCCC3)c3n(c2c1)CC(C(=O)N1CCC(N2CCCC(F)C2)CC1)=Cc1ccccc1-3 (stereo not shown) | 70 to 1000 nM | 10 to 1000 nM | – | – | – |
| C[C@@H]1CN(C(=O)NC2Cc3ccccc3-c3c(C4CCCCC4)c4ccc(C(=O)O)cc4n3C2)C[C@H](C)O1 (stereo partly shown) [drawing 143] | 70 to 1000 nM | 10 to 1000 nM | – | – | – |
| CN(C)S(=O)(=O)NC(=O)c1ccc2c(C3CCCCC3)c3n(c2c1)CC(C(=O)N1CCC(N2CCOCC2)CC1)=Cc1ccc(Cl)cc1-3 | 1000 to 10000 nM | > 1000 nM | – | – | – |
| COc1ccc2c(c1)CC(NC(=O)N(C)CC(N)=O)Cn1c-2c(C2CCCCC2)c2ccc(C(=O)NS(=O)(=O)N(C)C)cc21 (stereo not shown) | – | – | 30 to 1000 nM | 20 to 1000 nM | – |
| CN(C)S(=O)(=O)NC(=O)c1ccc2c(C3CCCCC3)c3n(c2c1)CC(C(=O)N1CCC(N2CCOCC2)CC1)=Cc1cc(O)ccc1-3 | 70 to 1000 nM | 10 to 1000 nM | – | – | – |
| CC1CN(C(=O)OC(C)(C)C)CCN1C(=O)C1=Cc2ccccc2-c2c(C3CCCCC3)c3ccc(C(=O)NS(=O)(=O)N(C)C)cc3n2C1 (stereo not shown) | 70 to 1000 nM | 10 to 1000 nM | – | – | – |
| CN(C)S(=O)(=O)NC(=O)c1ccc2c(C3CCCCC3)c3n(c2c1)CC(C(=O)N1C2CCC1CC2)=Cc1ccccc1-3 | – | 10 to 1000 nM | – | – | EC50 (HCV replicon): 70 to 1000 nM |
| COCCN1CCN(C(=O)C2=Cc3ccccc3-c3c(C4CCCCC4)c4ccc(C(=O)NS(=O)(=O)N(C)C)cc4n3C2)CC1 | 70 to 1000 nM | 10 to 1000 nM | – | – | – |
| NC(=O)C1CCCN(C(=O)C2Cc3ccccc3-c3c(C4CCCCC4)c4ccc(C(=O)O)cc4n3C2)C1 (stereo not shown) | 1000 to 10000 nM | 10 to 1000 nM | – | – | – |
| COc1ccc2c(c1)C=C(C(=O)N1C[C@@H](C)O[C@@H](C)C1)Cn1c-2c(C2CCCCC2)c2ccc(C(=O)NS(=O)(=O)c3ccc(C)cn3)cc21 | – | – | 30 to 1000 nM | 20 to 1000 nM | – |
| COc1ccc2c(c1)C=C(C(=O)N1CC(OP(=O)(O)O)C1)Cn1c-2c(C2CCCCC2)c2ccc(C(=O)NS(=O)(=O)N(C)C)cc21 | – | – | 1000 to 10000 nM | 20 to 1000 nM | – |
| CC(C)(C)OC(=O)N1CCN(C(=O)C2=Cc3ccccc3-c3c(C4CCCCC4)c4ccc(C(=O)O)cc4n3C2)CC1 | 70 to 1000 nM | 10 to 1000 nM | – | – | – |

From patent US7473688B2, “Indolobenzazepine HCV NS5B inhibitors” (Bristol-Myers Squibb Company, priority 2005, dated 2009)
